Measured values taken from US20110144125A1, “Anti-Arrhythmia Agents, Methods of Their Use, Methods of Their Identification and Kits Therefore” (THE UAB RESEARCH FOUNDATION, priority 2008, published 2011).

Experiments:
[1] = tested on: isolated atrial and ventricular muscle; details: >20 μM 2-APB with an agent that increases myocyte calcium load
Description: Specifically, isolated, superfused heart muscle, atrial or ventricular, treated with an appropriate concentration of 2-APB (>20 μM) and with an agent that increases myocyte calcium load was exposed to external pacing that stimulates the muscle at a physiological rate and with strength just sufficient to capture it.

[2] = tested on: right ventricular muscle strips and right or left ventricular papillary muscles; assay: Ventricular muscle model of SMA and STA; parameters: species or system rat; details: paced at 0.5 Hz, added to the superfusate in appropriate amounts
From the text: To further establish this model as a general test for arrhythmic and anti-arrhythmic agents, right ventricular muscle strips and right or left ventricular papillary muscles were isolated from anesthetized rats as cardiac muscle exemplars using methods known to persons skilled in the art. Additional exemplars could include ventricular or atrial conduction system cells and the SAN itself. These muscles were then superfused as described above and paced at 0.5 Hz.

[3] = tested on: rat left atrial appendage; assay: ATXII-induced triggered activity and transition to automaticity in left atrial appendage; details: ATXII-treated appendages, ˜25 μM 2-APB
From the text: There are two types of afterdepolarizations; early afterdepolarizations (EADs) that occur early during repolarization and delayed afterdepolarizations (DADs) that occur in fully repolarized, resting myocytes (FIG. 4). Both EADs and DADs are defined as “triggered” activities as they require a preceding normal action potential to occur (FIG. 3B). One model to elicit EADs is to expose heart muscle or myocytes to Anemonia sulcata Toxin II (ATX II). This 47 amino acid peptide specifically enhances late sodium current and prolongs the action potential duration (FIG. 3D; middle panel). This leads to calcium loading of heart muscle followed by EADs during phase 2 or phase 3 of the action potential (FIGS. 3D & 5). These EADs, if of sufficient magnitude, produce ectopic mechanical events (FIG. 3B; ‡).
In embodiments of the assay an agent to induce arrhythmia will be introduced in the muscle. The arrhythmic agent may be chemical or physical. If the agent is chemical, it can be any chemical agent known by those skilled in the art to induce arrhythmia. The chemical agent will be introduced at a concentration sufficient to induce arrhythmia. If a certain type of arrhythmia is the subject of the assay (for example, triggered activity, tachycardia or any other type of arrhythmia), then the agent should be present at a concentration sufficient to produce the certain type of arrhythmia. One acceptable agent is anemone toxin II (“ATX II,”), the toxin of Anemone sulcata. ATX II is a sodium channel regulator.
It was tested whether the altered voltage-independent calcium homeostasis which 2-APB provokes is sufficient to initiate frank automaticity from triggered activity.

[4] = tested on: rat right atria; assay: Right atrial spontaneous (pacemaker-driven) contraction frequency; details: 30 nM isoproterenol
Description: Male Sprague-Dawley rats (325-400 g) were anesthetized with intra-peritoneal pentobarbital (0.1 g/kg). Their right and left atria were isolated, superfused at 30° C. in Krebs-Henseleit buffer, and nearly isometric forces of contraction were measured from these muscles (Wolkowicz et al., 2002). 2-APB was prepared as a 150 mM dimethyl sulfoxide stock.
Left atria (n=9) were paced at 0.1 Hz, treated with 300 nM BayK 8644 for 5 min, then with 20 μM 2-APB for 10 min, and the pacing stimulus was stopped. These preparations then were incubated with six increasing concentrations of zatebradine (10-100 μM) for 3-5 min at each concentration, and rates of SMA were recorded. Untreated right atria (n=9) also were titrated with zatebradine and its effect on contraction frequency was recorded.
To test whether zatebradine affects the SMA occurring in the presence of 2-APB and isoproterenol, left atria (n=7) were paced at 0.1 Hz, treated with 30 nM isoproterenol for 5 min, then with 20 μM 2-APB for 10 min, and the pacing stimulus was stopped. Rates of SMA were recorded, these left atria were exposed to 70 μM zatebradine for 10 min, and rates of SMA were recorded again. A group of right atria (n=7) also were exposed to 30 nM isoproterenol for 5 min and then to 70 μM zatebradine for 10 min. Right atrial contraction frequency was recorded at these two times.
To test whether ZD-7288 (4-Ethylphenyl amino-1,2-dimethyl-6-methylaminopyridinium chloride), an If inhibitor structurally unrelated to zatebradine (Baruscotti et al., 2005; Sanders et al., 2006) affects the SMA occurring in the presence of 2-APB and BayK 8644, rat left atria (n=7) were treated with 300 nM BayK 8644 for 5 min, then with 20 μM 2-APB for 10 min, and the rates of SMA were recorded. These atria then were incubated with six increasing concentrations of ZD-7288 (10-100 μM) for 3-5 min at each concentration, and the rates of SMA were recorded. Right atria (n=7) were titrated similarly with ZD-7288 (0-100 μM) and the change in their contraction frequency was recorded.

| SMILES | mechanical activity under physiological-rate pacing [1] | ventricular SMA [2] | transition from triggered activity to STA [3] | right atrial contraction frequency [4] [contractions/min] |
| --- | --- | --- | --- | --- |
| NCCOB(c1ccccc1)c1ccccc1 [2-APB, 2-aminoethoxydiphenyl borate] | disorganized, fibrillation-like mechanical activity | ventricular SMA was observed | STA began to occur | – |
| CC(C)NCC(O)c1ccc(O)c(O)c1 (stereo not shown) [isoproterenol] | – | – | – | 276±11.4 |
